From paper PMC6272905, “In Vitro and In Vivo Characterization of Selected Fluorine-18 Labeled Radioligands for PET Imaging of the Dopamine D3 Receptor” (Molecules, 2016)

What was measured:
[1] = In vivo stability in blood of living rats (radiometabolites); set-up: species or system rat
Experimental: For the determination of radioligand stability in vivo and detection of radiometabolites the respective radiotracer (15 MBq) was administered intravenous to male Sprague Dawley rats (200–250 g) under isoflurane anesthesia. Blood samples were drawn intravenous after 5, 15 and 30 min and centrifuged for 5 min at 2000 rpm in heparin-coated vials. An aliquot of 50 µL was taken from the supernatant and added to an equal volume of water (10% TFA). The protein precipitate was centrifuged off for 5 min at 25,000 rpm and an aliquot of the supernatant was fractioned with HPLC (Chromolith RP-18e, 100 mm × 4.6 mm, 4 mL/min, solvent A: water (0.1% TFA), solvent B: acetonitrile (0.1% TFA), gradient A/B: 90:10 to 0:100 in 15 min, λ = 214 nm). The fractions were then analyzed in the gamma-counter. To identify the fractions containing the intact radioligand, the retention time and fractioning of the respective tracer was previously assessed. Two independent experiments were performed.

P-gp = target: T1, P-gp (Homo sapiens, UniProt P08183); assay: Bi-directional transport assay in Caco-2 cells; type: cell-based
T1 construct: endogenous in cells; host or cells: Caco-2
T1 sequence (P08183 whole entry): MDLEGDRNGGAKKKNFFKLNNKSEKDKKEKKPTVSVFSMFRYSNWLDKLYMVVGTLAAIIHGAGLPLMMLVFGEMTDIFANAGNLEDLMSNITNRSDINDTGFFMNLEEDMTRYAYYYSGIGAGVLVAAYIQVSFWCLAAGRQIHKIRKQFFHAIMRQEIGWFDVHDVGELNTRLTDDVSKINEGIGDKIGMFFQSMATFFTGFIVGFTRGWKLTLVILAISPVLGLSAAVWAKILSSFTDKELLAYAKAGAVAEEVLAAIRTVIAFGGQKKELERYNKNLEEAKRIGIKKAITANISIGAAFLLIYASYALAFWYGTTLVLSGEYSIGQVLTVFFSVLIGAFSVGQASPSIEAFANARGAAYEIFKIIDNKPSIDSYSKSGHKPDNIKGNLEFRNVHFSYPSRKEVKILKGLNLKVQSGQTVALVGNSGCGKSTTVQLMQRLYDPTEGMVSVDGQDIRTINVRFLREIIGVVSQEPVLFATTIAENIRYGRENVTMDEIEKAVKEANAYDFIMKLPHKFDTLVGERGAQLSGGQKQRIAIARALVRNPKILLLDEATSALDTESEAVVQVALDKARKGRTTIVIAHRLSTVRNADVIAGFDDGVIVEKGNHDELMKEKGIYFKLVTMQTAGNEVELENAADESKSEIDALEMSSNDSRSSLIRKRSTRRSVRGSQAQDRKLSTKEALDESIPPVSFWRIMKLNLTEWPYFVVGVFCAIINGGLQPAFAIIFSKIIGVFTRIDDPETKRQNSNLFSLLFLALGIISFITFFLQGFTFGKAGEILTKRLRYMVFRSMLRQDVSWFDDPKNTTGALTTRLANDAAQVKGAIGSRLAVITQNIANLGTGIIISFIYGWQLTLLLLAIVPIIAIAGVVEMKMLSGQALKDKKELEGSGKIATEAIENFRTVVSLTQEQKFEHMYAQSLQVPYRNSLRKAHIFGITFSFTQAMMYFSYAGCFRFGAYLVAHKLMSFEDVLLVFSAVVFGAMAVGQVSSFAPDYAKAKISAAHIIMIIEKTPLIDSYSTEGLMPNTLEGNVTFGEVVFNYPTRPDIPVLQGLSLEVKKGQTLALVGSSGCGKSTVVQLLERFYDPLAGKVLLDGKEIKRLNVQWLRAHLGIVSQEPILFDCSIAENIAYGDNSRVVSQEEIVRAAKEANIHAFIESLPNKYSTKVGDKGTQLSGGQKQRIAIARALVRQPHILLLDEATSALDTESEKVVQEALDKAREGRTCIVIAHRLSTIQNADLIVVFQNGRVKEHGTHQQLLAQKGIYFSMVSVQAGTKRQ
Experimental: The procedure of initially adding equal concentrations to both compartments was adapted from the literature. Caco-2 cells were seeded near confluency in thin-cert inserts (translucent, Ø 0.4 µm, 24 well PET membrane, Greiner) and placed in multiwell plates (CELLSTAR 24 Multiwell plates, Greiner). The culture medium basolateral (multiwell) and apical (insert) was renewed every 2–3 days. Approximately 12 days after seeding the Caco-2 cells reached their highest trans-epithelial resistance, which was monitored every four days and on day of the experiment. An immunocytochemistry was also performed with an additional insert (translucent) to confirm stable formation of tight-junctions and cell monolayer. Culture medium was then removed and the cells were washed with PBS. Culture medium supplemented with cyclosporin (10 µM) was added to both compartments and the cells were incubated at 37 °C for 30 min. Afterwards 1 MBq [^18F]2b was added to each compartment. An aliquot was taken from each compartment after 0, 30, 60 and 90 min and analyzed in the gamma-counter. To identify cyclosporine-A induced accumulation the experiment was also performed using culture medium lacking cyclosporine-A. As positive control the experiment was performed with ^99mTc-MIBI (100 kBq/ compartment).

D3 receptor [2] = target: T2, D3 receptor (Rattus norvegicus, UniProt P19020); assay: In vitro autoradiography of coronal rat brain sections; type: binding; conditions: displacement with BP897
T2 construct: In vitro autoradiography of coronal rat brain sections after incubation with the respective radioligand; from tissue; host or cells: coronal brain cryosections (20 µm) of male Sprague Dawley rats
T2 sequence (P19020 whole entry): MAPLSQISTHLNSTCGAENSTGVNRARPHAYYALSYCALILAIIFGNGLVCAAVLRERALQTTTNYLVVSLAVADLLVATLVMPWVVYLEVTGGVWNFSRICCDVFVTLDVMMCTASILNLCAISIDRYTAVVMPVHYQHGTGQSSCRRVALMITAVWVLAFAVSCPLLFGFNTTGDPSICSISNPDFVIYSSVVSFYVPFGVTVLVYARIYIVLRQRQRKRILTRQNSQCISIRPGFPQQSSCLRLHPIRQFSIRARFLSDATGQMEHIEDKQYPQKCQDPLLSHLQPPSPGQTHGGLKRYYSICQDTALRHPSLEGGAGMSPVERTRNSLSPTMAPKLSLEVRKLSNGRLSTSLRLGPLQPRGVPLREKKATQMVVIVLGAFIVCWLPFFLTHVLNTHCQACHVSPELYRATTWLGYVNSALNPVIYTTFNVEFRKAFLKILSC
Experimental: Male Sprague Dawley rats (200–250 g) were sacrificed by decapitation under deep isoflurane anesthesia and brains were removed and frozen in cooled hexane at −70 °C. Coronal brain sections (20 µm) were cut on a cryostat microtome (HM550, Microm-Thermo Fisher Scientific, Walldorf, Germany) and thaw-mounted on covered glass slides (Histobond®, Marienfeld, Lauda Königshofen, Germany). The thaw mounted sections were stored at −20 °C up to 14 days.
The cryostat sections were pre-incubated for 15 min in incubation buffer (50 mM Tris-HCl, 40 mM NaCl, pH 7.4) at room temperature. The sections were then placed in incubation buffer containing 5 MBq of the respective tracer. For displacement studies BP897 (50 nM or 1 µM) was added. The sections were incubated at room temperature for 45 min and afterwards washed in ice cold incubation buffer for 3 × 5 min. Subsequently, they were dipped in water and after drying placed on a phosphor imaging screen (Fujitsu, Berlin, Germany) over night. The screens were analyzed with a DUERR Medical HD-CR 35 Bio (Raytest, Straubenhardt, Germany) and evaluated using the software AIDA image analyzer (Raytest). For anatomical identification of brain regions, the sections were compared with figures in the rat brain atlas.

D3 receptor [3] = conditions: cited from earlier work
[4] = Caco-2, absence of cyclosporin-A, up to 90 min

intact tracer in rat plasma ([1]; 5 min after i.v. injection): 49%
intact tracer in rat plasma ([1]; 30 min after i.v. injection): 37%
concentration in the apical compartment, % of the initial concentration (P-gp; [4]): 90%
concentration in the basolateral compartment, % of the initial concentration (P-gp; [4]): 100%
concentration in the basolateral compartment (P-gp; Caco-2, presence of cyclosporin-A): stayed nearly constant
concentration in the apical compartment, % of the initial concentration (P-gp; Caco-2, presence of cyclosporin-A (^99mTc-MIBI after 60 and 90 min; [^18F]2b after 30 min)): 80%
P-gp substrate (P-gp; conclusion from inhibition and transport assays): no P-gp substrate
binding pattern in rat brain sections (D3 receptor [2]): D3 specific binding was visible
Compound: COc1ccccc1N1CCN(CCCCNC(=O)/N=N/c2ccc([18F])cc2)CC1 [[^18F]2b]
Ki (D3 receptor [3]): 3.5 nM
